The record followed here is ChEMBL document CHEMBL1649371, “Isoxazolidinyl polycyclic aromatic hydrocarbons as DNA-intercalating antitumor agents” (Eur J Med Chem, 2011).

Activity calls are given as the source filed them. The calls are words filed in the database; no cut-off is given here. Numbered stars: 1 amine (or outer) side, 2 acyl side, 3 side chain; on linkers, the order of the positions; unused ones are H or OH. Bridge positions count the residues as written; N and C are the ends. Square brackets hold non-standard residues; d marks the D form. Peptide text beside a SMILES is read from it. I, II: the chains in the order shown. Actinocin(1to9) = Cc1c2oc3c(C)ccc(C(=O)[*:2])c3nc-2c(C(=O)[*:1])c(N)c1=O; NMeV = CN[C@H](C(=O)O)C(C)C; Sar = CNCC(=O)O

The test system of experiment [1] is Calf thymus DNA. In words: Binding affinity to calf thymus DNA by UV spectral analysis. The class given is nucleic-acid assay. The conditions noted are these: Bos taurus.
The test system of experiment [2] is HeLa. In words: Cytotoxicity against human HeLa cells after 20 hrs by MTS assay. The class given is functional, cell-based. (In general: Formazan colour is commonly taken as a measure of viable cells.)
In experiment [3] the test system is A549. The experiment is described as follows: Cytotoxicity against human A549 cells by SRB assay. The class given is functional, cell-based. On the technique in general: In SRB staining, fixed cells bind dye roughly in proportion to their protein.
The test system of experiment [4] is MOLT-3. In words: Cytotoxicity against human MOLT3 cells after 20 hrs by MTS assay. It counts as functional, cell-based. As to conditions: MOLT-3, 20 h.
For experiment [5], the system named is THP-1. The experiment is described as follows: Cytotoxicity against human THP1 cells after 20 hrs by MTS assay. The class given is functional, cell-based. The conditions noted are these: THP-1, 20 h.
In experiment [6] the test system is U-937. The experiment is described as follows: Cytotoxicity against human U937 cells after 20 hrs by MTS assay. It counts as functional, cell-based. As to conditions: U-937, 20 h.
The subject of experiment [7] is Vero. The experiment is described as follows: Cytotoxicity against african green monkey Vero cells after 20 hrs by MTS assay. The class given is cell-based. As to conditions: Chlorocebus sabaeus.
Experiment [8] deals with Nucleic Acid. In words: Binding affinity to Escherichia coli phiX174 RF1 DNA assessed as DNA unwinding in presence of topoisomerase 1 after 30 mins by electrophoresis. The class given is nucleic-acid assay.
Experiment [9] deals with A549. In words: Cytotoxicity against human A549 cells assessed as decrease of viable cells at 0.5 ug/ml after 8 hrs relative to control. The class given is functional.

The compound `CN1O[C@H](CO)C[C@@H]1c1ccc2ccc3cccc4ccc1c2c34` registered a Kb in experiment [1] of 6.8 ×10³ /M.
With `CN1O[C@H]2C(=O)NC(=O)[C@H]2[C@@H]1c1ccc2ccc3cccc4ccc1c2c34` (racemic), the concentration for half-maximal inhibition (IC50) (as a rule, the concentration that inhibits the measured activity by half) in [2] stood at 135 µM; in experiment [3] it was 83 µM; in [4], 95 µM; in experiment [5] it was 102 µM; in experiment [6], 130 µM; in experiment [7] it was 150 µM.
Turning to `CN1O[C@@H]2C(=O)NC(=O)[C@@H]2[C@@H]1c1ccc2ccc3cccc4ccc1c2c34` (racemic), the concentration for half-maximal inhibition (IC50) in experiment [2] is 284 µM; in [3], 328 µM; in experiment [4], 415 µM; in experiment [5] it was 399 µM; in experiment [6], more than 500 µM; in [7], more than 500 µM.
Turning to `NC[C@@H]1C[C@H](c2cc3ccccc3c3ccccc23)N(Cc2ccccc2)O1` (racemic), the IC50 in experiment [2] is 50 µM; in [3], 32 µM; in [4], 43 µM; in experiment [5], 55 µM; in experiment [6], 154 µM; in experiment [7] it was 132 µM.
Regarding `CN1O[C@H](CN)C[C@@H]1c1ccc2ccc3cccc4ccc1c2c34` (racemic), the IC50 in experiment [2] is 15 µM; in experiment [3] it was 9 µM; in experiment [4], 12 µM; in [5], 19 µM; in experiment [6], 88 µM; in experiment [7], 102 µM. For the same compound, the outcome in [8] was Active. Moreover, the Kb in [1] was determined as 9.6 ×10⁴ /M.
Turning to `NC[C@H]1C[C@H](c2cc3ccccc3c3ccccc23)N(Cc2ccccc2)O1` (racemic), the IC50 in [2] was 45 µM; in experiment [3] it was 35 µM; in [4], 50 µM; in experiment [5], 61 µM; in experiment [6], 112 µM; in experiment [7] it was 140 µM.
Turning to `CN1O[C@@H](CN)C[C@@H]1c1ccc2ccc3cccc4ccc1c2c34` (racemic), the IC50 in experiment [2] came out at 15 µM; in experiment [3], 11 µM; in experiment [4] it was 17 µM; in experiment [5] it was 18 µM; in [6] it was 80 µM; in [7], 110 µM.
In [4], `Cc1c2oc3c(C)ccc(C(=O)N[C@@H]4C(=O)N[C@H](C(C)C)C(=O)N5CCC[C@H]5C(=O)N(C)CC(=O)N(C)[C@@H](C(C)C)C(=O)O[C@@H]4C)c3nc-2c(C(=O)N[C@@H]2C(=O)N[C@H](C(C)C)C(=O)N3CCC[C@H]3C(=O)N(C)CC(=O)N(C)[C@@H](C(C)C)C(=O)O[C@@H]2C)c(N)c1=O` [DACTINOMYCIN] (I: T[dV]P[Sar][NMeV] / II: T[dV]P[Sar][NMeV]; ester I:1-I:C, II:1-II:C; linker I:N-II:N via Actinocin(1to9)) had an IC50 not above 1 µM. Besides, the Activity in [9] was 40%.
